Results taken from patent publication US20110118262A1, “Pyrrolidinyl and Piperidinyl Compounds Useful as NHE-1 Inhibitiors” (BOEHRINGER INGELHEIM INTERNATIONAL GMBH, priority 2008, published 2011).

Target: T1, NHE-1 (Homo sapiens, UniProt P19634)
T1 construct: endogenous in cells; host or cells: HT-29
Assay: Evaluation of NHE-1 Inhibition (pHi) in HT-29 cells
Format: cell-based
Details: BCECF dye, 50% inhibition of the intracellular pH recovery, read-out: NHE1 HT29 pHi IC50
Method in brief: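 Intracellular pH measured with BCECF in HT-29 cells after 24 h culture. Cells dye-loaded 30 min at 37° C, then acid-loaded with NH4Cl-containing choline buffer (pH 7.5) for 30 min at RT. Compounds added on an FDSS6000 fluorescence reader.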

T1 sequence (P19634 whole entry): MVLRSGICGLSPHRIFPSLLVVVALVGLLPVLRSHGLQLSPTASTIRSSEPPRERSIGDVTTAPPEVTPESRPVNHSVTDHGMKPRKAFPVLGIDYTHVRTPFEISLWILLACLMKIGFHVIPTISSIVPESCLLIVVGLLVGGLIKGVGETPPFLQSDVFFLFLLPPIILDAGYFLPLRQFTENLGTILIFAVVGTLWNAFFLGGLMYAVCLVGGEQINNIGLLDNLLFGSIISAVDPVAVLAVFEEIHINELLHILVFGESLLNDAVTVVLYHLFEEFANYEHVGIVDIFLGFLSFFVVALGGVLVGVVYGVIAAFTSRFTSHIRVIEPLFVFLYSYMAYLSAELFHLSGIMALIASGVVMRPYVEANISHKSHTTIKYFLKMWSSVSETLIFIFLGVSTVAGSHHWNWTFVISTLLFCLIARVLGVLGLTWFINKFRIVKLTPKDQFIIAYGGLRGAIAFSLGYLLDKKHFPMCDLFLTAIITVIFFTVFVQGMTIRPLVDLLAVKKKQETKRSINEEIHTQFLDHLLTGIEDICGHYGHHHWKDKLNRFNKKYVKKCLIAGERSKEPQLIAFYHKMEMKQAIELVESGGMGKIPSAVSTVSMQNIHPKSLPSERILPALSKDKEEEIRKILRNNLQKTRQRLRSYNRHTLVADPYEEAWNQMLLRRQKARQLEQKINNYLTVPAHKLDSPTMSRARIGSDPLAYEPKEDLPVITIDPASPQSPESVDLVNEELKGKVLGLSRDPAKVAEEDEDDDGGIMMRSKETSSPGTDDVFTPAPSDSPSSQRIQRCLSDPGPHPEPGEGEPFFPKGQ

Row | IC50 [nM] | SMILES
1 | 25 | N=C(N)NC(=O)c1ccc(C2CCN(C(=O)c3ccc4cccnc4n3)CC2)c(C(F)(F)F)c1 [N-{4-[1-([1,8]Naphthyridine-2-carbonyl)-piperidin-4-yl]-3-trifluoromethyl-benzoyl}-guanidine]
2 | 51 | Cc1cc(C2CCN(C(=O)c3cccc(C(F)(F)F)c3)CC2)c(S(C)(=O)=O)cc1C(=O)NC(=N)N [N-{5-methanesulfonyl-2-methyl-4-[1-(3-trifluoromethyl-benzoyl)-piperidin-4-yl]-benzoyl}-guanidine]
3 | 15 | COCC(=O)N1CCC(c2cc(C)c(C(=O)NC(=N)N)cc2S(C)(=O)=O)CC1 [N-{5-methanesulfonyl-4-[1-(2-methoxy-acetyl)-piperidin-4-yl]-2-methyl-benzoyl}-guanidine]
4 | 16 | CCC(=O)N1CCC(c2cc(C)c(C(=O)NC(=N)N)cc2S(C)(=O)=O)CC1 [N-{5-methanesulfonyl-4-[1-propionyl-piperidin-4-yl]-2-methyl-benzoyl}-guanidine]
